The values that follow come from PubChem BioAssay AID256 (DTP/NCI, 2004).

This experiment deals with CD2F1 mice, L1210 leukemia ip, survival T/C. Description: NCI In Vivo Anticancer Drug Screen. Data for tumor model L1210 Leukemia (intraperitoneal) in CD2F1 (CDF1) mice. To be noted: higher = longer survival. A digest of the protocol:
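Vehicle-treated tumor-bearing mice served as controls (C) for compound-treated mice (T). Reported figure is T divided by C.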

[1] abbreviates: endpoint: mean survival time, dose: 100.0 mg/kg/injection, schedule: Q04DX003 (ip), vehicle: saline with Tween-80.
The mark [2] stands for this setting: endpoint: mean survival time, dose: 200.0 mg/kg/injection, schedule: Q04DX003 (ip), vehicle: saline with Tween-80.
[3] abbreviates: endpoint: mean survival time, dose: 400.0 mg/kg/injection, schedule: Q04DX003 (ip), vehicle: saline with Tween-80.
[4] abbreviates: endpoint: mean survival time, dose: 0.25 mg/kg/injection, schedule: Q01DX009 (ip), vehicle: saline.
Where [5] appears, read: endpoint: mean survival time, dose: 0.5 mg/kg/injection, schedule: Q01DX009 (ip), vehicle: saline.
The mark [6] stands for this setting: endpoint: mean survival time, dose: 100.0 mg/kg/injection, schedule: Q01DX009 (ip), vehicle: saline with Tween-80.
[7] abbreviates: endpoint: mean survival time, dose: 200.0 mg/kg/injection, schedule: Q01DX009 (ip), vehicle: saline with Tween-80.
Where [8] appears, read: endpoint: mean survival time, dose: 400.0 mg/kg/injection, schedule: Q01DX009 (ip), vehicle: saline with Tween-80.

Structures are written as SMILES. Several values for one entry are separate records, joined by “and”; a condition that tells them apart may be missing. Identical values can stand only once. Inconclusive results and toxic doses are left out. Residues, ends and D or L forms follow the SMILES beside them.

`CCN(CCc1ccc(N)cc1)C(Cc1ccccc1)c1cccc(OC)c1` (configuration not stated): the T/C (endpoint: mean survival time, dose: 12.5 mg/kg/injection, schedule: Q01DX009 (ip), vehicle: saline) is 102 % of control; the T/C (endpoint: mean survival time, dose: 12.5 mg/kg/injection, schedule: Q04DX003 (ip), vehicle: saline) is 103 % of control; the T/C (endpoint: mean survival time, dose: 25.0 mg/kg/injection, schedule: Q01DX009 (ip), vehicle: saline) was 97 % of control; the T/C (endpoint: mean survival time, dose: 25.0 mg/kg/injection, schedule: Q04DX003 (ip), vehicle: saline) is 97 % of control; the T/C (endpoint: mean survival time, dose: 50.0 mg/kg/injection, schedule: Q01DX009 (ip), vehicle: saline) was 100 % of control; the T/C (endpoint: mean survival time, dose: 50.0 mg/kg/injection, schedule: Q04DX003 (ip), vehicle: saline) is 95 % of control.
Consider `CC1C=COC(C)CO1` (configuration not stated) (tested in a mixture with another compound), for which the T/C is 103 % of control under setting [1], 97 % of control under setting [2] and 95 % of control under setting [3].
With `O=C(C=C(C(F)(F)F)C(F)(F)F)c1ccc(C(=O)C=C(C(F)(F)F)C(F)(F)F)cc1`, the T/C reads like this: under setting [1], 105 % of control; under setting [2], 93 % of control.
Consider `c1cc(C[N+]23CN4CN(CN(C4)C2)C3)cs1`, for which the T/C under setting [1] is 91 % of control.
Regarding `CCCCCCCCCCCCOCC[N+](CCO)(CCO)Cc1ccccc1`, the T/C is, setting by setting: under setting [4], 91 % of control; under setting [5], 107 % of control; (endpoint: mean survival time, dose: 1.0 mg/kg/injection, schedule: Q01DX009 (ip), vehicle: saline) 90 % of control; (endpoint: mean survival time, dose: 5.0 mg/kg/injection, schedule: Q04DX003 (ip), vehicle: saline) 102 % of control; (endpoint: mean survival time, dose: 10.0 mg/kg/injection, schedule: Q04DX003 (ip), vehicle: saline) 101 % of control; (endpoint: mean survival time, dose: 20.0 mg/kg/injection, schedule: Q04DX003 (ip), vehicle: saline) 93 % of control.
As for `OCC1OC(n2c(C(F)(F)F)nc3cc4ccccc4cc32)C(O)C1O` (configuration not stated), the T/C (endpoint: median survival time, dose: 22.5 mg/kg/injection, schedule: Q01DX005 (ip), vehicle: saline with Tween-80) was 103 % of control; the T/C (endpoint: median survival time, dose: 45.0 mg/kg/injection, schedule: Q01DX005 (ip), vehicle: saline with Tween-80) was 103 % of control; the T/C (endpoint: median survival time, dose: 90.0 mg/kg/injection, schedule: Q01DX005 (ip), vehicle: saline with Tween-80) is 93 % of control; the T/C (endpoint: median survival time, dose: 180.0 mg/kg/injection, schedule: Q01DX005 (ip), vehicle: saline with Tween-80) is 98 % of control.
For `O=C1CCC(=O)N1Br`, the T/C was 101 % of control under setting [6]; 100 % of control under setting [1]; 96 % of control under setting [7]; 95 % of control under setting [2]; 101 % of control under setting [8]; 91 % of control under setting [3].
Take `C=C(Cl)CSCCO`: the T/C under setting [6] was 100 % of control, the T/C under setting [7] is 104 % of control and the T/C under setting [8] is 98 % of control.
For the molecule `CCOc1cc([N+](=O)[O-])c(OCC)cc1Cl`, the T/C reads like this: under setting [6], 90 % of control; under setting [1], 92 % of control; under setting [7], 96 % of control; under setting [2], 89 % of control; under setting [8], 98 % of control; under setting [3], 93 % of control.
With `CC(C)CC(NC(=O)C(O)C(N)Cc1ccccc1)C(=O)O` (configuration not stated), the T/C reads like this: (endpoint: mean survival time, dose: 10.0 micrograms/kg/injection, schedule: Q01DX005 (oral), vehicle: saline) 96 % of control; (endpoint: mean survival time, dose: 100.0 micrograms/kg/injection, schedule: Q01DX005 (oral), vehicle: saline) 100 % of control; (endpoint: median survival time, dose: 10.0 micrograms/mouse/injection, schedule: Q01DX010 (oral), vehicle: saline) 97 % of control; (endpoint: median survival time, dose: 100.0 micrograms/mouse/injection, schedule: Q01DX010 (oral), vehicle: saline) 95 % of control.
`CC(C)C(NC(=O)C(CCCN=C(N)N)NC(=O)C(N)CCCCN)C(N)=O` (stereo not drawn) (H-Lys-Arg-Val-NH2; configuration not given here): the T/C runs as follows: (endpoint: mean survival time, dose: 12.5 mg/kg/injection, schedule: Q01DX009 (ip), vehicle: water) 101 % of control; (endpoint: mean survival time, dose: 25.0 mg/kg/injection, schedule: Q01DX009 (ip), vehicle: water) 101 % of control; (endpoint: mean survival time, dose: 50.0 mg/kg/injection, schedule: Q01DX009 (ip), vehicle: water) 94 % of control; (endpoint: mean survival time, dose: 100.0 mg/kg/injection, schedule: Q01DX009 (ip), vehicle: water) 97 % of control; (endpoint: mean survival time, dose: 200.0 mg/kg/injection, schedule: Q01DX009 (ip), vehicle: water) 95 % of control.
Regarding `O=[N+]([O-])c1ccc2c(ccn2C2OCC(O)C(O)C2O)c1` (configuration not stated), the T/C (endpoint: mean survival time, dose: 450.0 mg/kg/injection, schedule: Q01DX009 (ip), vehicle: saline with Tween-80) was 101 % of control.
With `O=C(O)CCCCc1ccccc1`, the T/C runs as follows: under setting [6], 93 % of control; under setting [1], 106 % of control; under setting [7], 98 % of control; under setting [2], 92 % of control; under setting [8], 102 % of control; under setting [3], 106 % of control.
For `CCC(=O)OCC(=O)[C@]1(O)Cc2c(O)c3c(c(O)c2[C@@H](OC2CC(N)C(O)C(C)O2)C1)C(=O)c1c(OC)cccc1C3=O` (some centres not stated), the T/C by setting is: under setting [4], 112 % of control; under setting [5], 122 % of control; (endpoint: mean survival time, dose: 1.5 mg/kg/injection, schedule: Q04DX003 (ip), vehicle: saline sonified) 166 % of control; (endpoint: mean survival time, dose: 2.0 mg/kg/injection, schedule: Q01DX009 (ip), vehicle: saline) 155 % of control; (endpoint: mean survival time, dose: 2.0 mg/kg/injection, schedule: Q04DX003 (ip), vehicle: saline with Tween-80) 118 % of control; (endpoint: mean survival time, dose: 8.0 mg/kg/injection, schedule: Q01DX009 (ip), vehicle: saline) 89 % of control.
For `CN(C)CCNCc1cn(C2CC(O)C(CO)O2)c(=O)[nH]c1=O` (configuration not stated), the T/C is 105 % of control (endpoint: mean survival time, dose: 12.5 mg/kg/injection, schedule: Q01DX005 (ip), vehicle: water); 103 % of control (endpoint: mean survival time, dose: 25.0 mg/kg/injection, schedule: Q01DX005 (ip), vehicle: water); 106 % of control (endpoint: mean survival time, dose: 50.0 mg/kg/injection, schedule: Q01DX005 (ip), vehicle: water); 103 % of control (endpoint: mean survival time, dose: 100.0 mg/kg/injection, schedule: Q01DX005 (ip), vehicle: water); 114 % of control (endpoint: mean survival time, dose: 200.0 mg/kg/injection, schedule: Q01DX005 (ip), vehicle: water).
`c1ccc(CCc2ccccn2)nc1`: the T/C (endpoint: mean survival time, dose: 25.0 mg/kg/injection, schedule: Q04DX003 (ip), vehicle: saline with Tween-80) was 105 % of control; the T/C (endpoint: mean survival time, dose: 50.0 mg/kg/injection, schedule: Q04DX003 (ip), vehicle: saline with Tween-80) was 100 % of control; the T/C under setting [1] is 91 % of control and 103 % of control.
On to `CC(=O)C(CCN(C)C)(c1ccccc1)c1ccccc1`, for which the T/C was 102 % of control (endpoint: mean survival time, dose: 75.0 mg/kg/injection, schedule: Q01DX001 (ip), vehicle: saline) and 91 % of control (endpoint: mean survival time, dose: 150.0 mg/kg/injection, schedule: Q01DX001 (ip), vehicle: saline).
As for `Cc1ccc(S(=O)(=O)/C=C(\Cl)S(=O)(=O)C(C)(C)C)cc1`, the T/C (endpoint: mean survival time, dose: 25.0 mg/kg/injection, schedule: Q01DX001 (ip), vehicle: saline with Tween-80) is 93 % of control and the T/C (endpoint: mean survival time, dose: 50.0 mg/kg/injection, schedule: Q01DX001 (ip), vehicle: saline with Tween-80) is 104 % of control.
As to `CC(=O)OCC1OC(N2C(=O)/C(=C/c3ccc4ccccc4c3)SC2=S)C(OC(C)=O)C(OC(C)=O)C1OC(C)=O` (configuration not stated), the T/C reads like this: (endpoint: mean survival time, dose: 3.13 mg/kg/injection, schedule: Q01DX005 (ip), vehicle: distilled water + Tween-80) 88 % of control; (endpoint: mean survival time, dose: 6.25 mg/kg/injection, schedule: Q01DX005 (ip), vehicle: distilled water + Tween-80) 94 % of control; (endpoint: mean survival time, dose: 12.5 mg/kg/injection, schedule: Q01DX005 (ip), vehicle: distilled water + Tween-80) 96 % of control; (endpoint: mean survival time, dose: 25.0 mg/kg/injection, schedule: Q01DX005 (ip), vehicle: distilled water + Tween-80) 98 % of control; (endpoint: mean survival time, dose: 50.0 mg/kg/injection, schedule: Q01DX005 (ip), vehicle: distilled water + Tween-80) 100 % of control.
As for `NOCc1csc(NC(=O)Nc2ccccc2)n1`, the T/C was 110 % of control (endpoint: mean survival time, dose: 18.8 mg/kg/injection, schedule: Q01DX001 (ip), vehicle: saline with Tween-80); 98 % of control (endpoint: mean survival time, dose: 18.8 mg/kg/injection, schedule: Q04DX003 (ip), vehicle: saline with Tween-80); 112 % of control (endpoint: mean survival time, dose: 37.5 mg/kg/injection, schedule: Q01DX001 (ip), vehicle: saline with Tween-80); 98 % of control (endpoint: mean survival time, dose: 37.5 mg/kg/injection, schedule: Q04DX003 (ip), vehicle: saline with Tween-80); 96 % of control (endpoint: mean survival time, dose: 75.0 mg/kg/injection, schedule: Q01DX001 (ip), vehicle: saline with Tween-80); 98 % of control (endpoint: mean survival time, dose: 75.0 mg/kg/injection, schedule: Q04DX003 (ip), vehicle: saline with Tween-80).
